# What was measured:
# [1] = system: Microsporum canis; assay: In vitro MIC, progressive double dilutions in liquid medium; format: cell-based; conditions: Sabouraud broth with gentamycin
# Protocol: (§1) In vitro ativity against 116 strains of yeasts and 45 strains of dermatophytes
# (§2) MIC-s were determined by the method of progressive double dilutions in a liquid medium, using sterile microplates. The culture medium used was the Sabouraud broth with gentamycin (100 mg/1000 mL).
# [2] = system: Epidermophyton floccosum; assay: as above; format: cell-based; conditions: Sabouraud broth with gentamycin
# Protocol: as §1, §2
# [3] = system: C. Krusei; assay: as above; format: cell-based; conditions: Sabouraud broth with gentamycin
# Protocol: as §1, §2
# [4] = system: T. tonsurans; assay: as above; format: cell-based; conditions: Sabouraud broth with gentamycin
# Protocol: as §1, §2
# [5] = system: Trichoph. mentagrophytes; assay: as above; format: cell-based; conditions: Sabouraud broth with gentamycin
# Protocol: as §1, §2
# [6] = system: Trich. rubrum; assay: as above; format: cell-based; conditions: Sabouraud broth with gentamycin
# Protocol: as §1, §2
# [7] = system: Torulopsis glabrata; assay: as above; format: cell-based; conditions: Sabouraud broth with gentamycin
# Protocol: as §1, §2
# [8] = system: M. gypseum; assay: as above; format: cell-based; parameters: unit not given here; conditions: Sabouraud broth with gentamycin
# Protocol: as §1, §2
# [9] = system: C. parapsilosis; assay: as above; format: cell-based; parameters: unit not given here; conditions: Sabouraud broth with gentamycin
# Protocol: as §1, §2
# [10] = system: C. albicans; assay: as above; format: cell-based; parameters: unit not given here; conditions: Sabouraud broth with gentamycin
# Protocol: as §1, §2
# [11] = system: C. tropicalis; assay: as above; format: cell-based; parameters: unit not given here; conditions: Sabouraud broth with gentamycin
# Protocol: as §1, §2
# [12] = system: candidiosis; assay: In vivo antifungal activity against candidiosis; conditions: guinea pig candidiosis, double-blind
# Protocol: In vivo test of antifungal activity against candidiosis in guinea pig
# A double-blind comparative test was carried out with WAS 2160 and Clotrimazole, with the following results: […]
# [13] = system: Candida tropicalis CECT 1440; assay: In vitro activity against Candida tropicalis CECT 1440 (MIC and RIF); format: cell-based; conditions: for RIF: Relative Inhibition Factor, Candida tropicalis CECT 1440; for activity compared with Clotrimazole: applicant's own tests, illustrated by the table of Example 3
# Source text: In vitro activity against Candida tropicalis CECT 1440.
# This pharmacological test allows a comparison of the activities of the two products of the present invention (WAS 2160 and WAS 2169) with the activities of the structurally closest described product (SQ 80896), the structurally closest commercial product (Clotrimazole) and the analogue product without the seven-membered ring (WAS 2162). MIC (Minimum Inhibitory Concentration, in […]) and RIF (Relative Inhibition Factor) parameters were determined in a standard way, obtaining the results of the table (WAS 2162 is the nitric acid salt of 1-[(2,4-dichlorophenyl)phenylmethyl]-1H-imidazole, prepared at our laboratory).
# [14] = system: Malassezia furfur (Pytiosporum); assay: In vitro test against 30 strains of Malassezia furfur; format: cell-based; conditions: for % of strains with PIC lower than 40 »g/mL: PIC = Partial Inhibitory Concentration: growth inhibition greater than 50% in relation to controls
# Protocol: In vitro test against 30 strains of Malassezia furfur (Pytiosporum)
# A double-blind comparative test was carried out with WAS 2160, Clotrimazole and Bifonazole, with the results of the table. (PIC = Partial Inhibitory Concentration: growth inhibition greater than 50% in relation to controls).
# [15] = Tolerance test in rabbits (eye, skin, vagina); format: in vivo; conditions: skin and vagina
# Source text: Tolerance test of WAS 2160 in rabbits
# [16] = system: Trichophyton mentagrophytes; assay: In vivo protection against experimentally-induced dermatophytosis; conditions: guinea pig, double-blind
# Protocol: In vivo tests of protection against experimentally-induced dermatophytosis in the guinea pig, caused by Trichophyton mentagrophytes.
# Two double-blind comparative tests were carried out, with the following results: […]
# [17] = system: Candida albicans; conditions: data of US 4.420.474 Table I; cited from earlier work
Compound,MIC [1],MIC [2],MIC [3],MIC [4],MIC [5],MIC [6],MIC [7],MIC [8],MIC [9],MIC [10],MIC [11],% of animals with total clin. healing [12] [%],% of negative cultures after treatment [12] [%],RIF [13],% of strains with MIC lower than 40 »g/mL [14] [%],% of strains with PIC lower than 40 »g/mL [14] [%],activity compared with Clotrimazole [13],% of negative cultures after treatment ([16]; test I),% of negative cultures after treatment ([16]; test II),also measured
Clc1ccccc1C(c1ccccc1)(c1ccccc1)n1ccnc1 [Clotrimazole],"2,69","0,09","6,18","0,90","0,23","0,31","6,29","0,97","2,36","2,43","3,51",30,100,43.05,33,56,–,–,–,–
"Clc1ccc(C(c2ccccc2)n2ccnc2)c(Cl)c1 (centres unmarked) [WAS 2162, 1-[(2,4-dichlorophenyl)phenylmethyl]-1H-imidazole]",–,–,–,–,–,–,–,–,–,–,–,–,–,94.47,–,–,considerably less active than Clotrimazole,–,–,–
"Clc1cc(Cl)c2c(c1)CCc1ccccc1C2n1ccnc1.O=[N+]([O-])O (racemic) [WAS 2160, 1-(2,4-Dichloro-10,11-dihydro-5H-dibenzo[a,d]cyclohepten-5-yl)-1H-imidazole nitrate]","0,39","0,32","3,17","0,19","0,17","0,54","1,25","1,05","2,06","2,25","3,44",60,100,39.31,40,60,–,50%,–,"Tolerance [15]: innocuous and totally tolerated by the eye, the skin and the vagina"
"Clc1ccc2c(c1)C(n1ccnc1)c1ccccc1CC2 (centres unmarked) [SQ 80896, 1-(3-chloro-10,11-dihydro-5H-dibenzo[a,d]dicyclohepten-5-yl)-1H-imidazole]",–,–,–,–,–,–,–,–,–,–,–,–,–,83.96,–,–,considerably less active than Clotrimazole,–,–,activity compared with Clotrimazole (MIC parameters) [17]: considerably less active than Clotrimazole
"Clc1cc(Cl)c2c(c1)C=Cc1ccccc1C2n1ccnc1.O=[N+]([O-])O (racemic) [WAS 2169, 1-(2,4-dichloro-5H-dibenzo[a,d]cyclohepten-5-yl)-1H-imidazole nitrate]","0,06",–,"5,61",–,"0,17","0,30","6,33","0,08","1,08","1,98","7,58",–,–,54.94,–,–,–,–,"81,8%",–
c1ccc(-c2ccc(C(c3ccccc3)n3ccnc3)cc2)cc1 (centres unmarked) [Bifonazole],"3,12","0,02","50,50","1,20","1,48","1,19","14,88","6,25","58,97","12,10","72,67",–,–,–,83,50,–,39 % (test I),0 % (test II),–

# — patent EP0392326B1, “Dichloro-substituted imidazole derivatives as antifungal agents” (SOCIEDAD ESPANOLA DE ESPECIALIDADES FARMACO-TERAPEUTICAS, …, priority 1989, dated 1990)
